The values below come from ChEMBL document CHEMBL4196109, “Chemical Strategies for Half-Life Extension of Biopharmaceuticals: Lipidation and Its Alternatives” (ACS Med Chem Lett, 2018).

In one data set the test system is Homo sapiens. Nature of the data set: Half life in sc dosed human. The class given is ADME, organism-based. The following applies: in vivo.
The target of the next data set is Albumin (Homo sapiens, UniProt P02768). Nature of the data set: Binding affinity to human albumin. The class given is ADME. The following applies: isolated protein.

Where only a bound is given, the exact number is not on record here.

Chain of Albumin (P02768 whole entry): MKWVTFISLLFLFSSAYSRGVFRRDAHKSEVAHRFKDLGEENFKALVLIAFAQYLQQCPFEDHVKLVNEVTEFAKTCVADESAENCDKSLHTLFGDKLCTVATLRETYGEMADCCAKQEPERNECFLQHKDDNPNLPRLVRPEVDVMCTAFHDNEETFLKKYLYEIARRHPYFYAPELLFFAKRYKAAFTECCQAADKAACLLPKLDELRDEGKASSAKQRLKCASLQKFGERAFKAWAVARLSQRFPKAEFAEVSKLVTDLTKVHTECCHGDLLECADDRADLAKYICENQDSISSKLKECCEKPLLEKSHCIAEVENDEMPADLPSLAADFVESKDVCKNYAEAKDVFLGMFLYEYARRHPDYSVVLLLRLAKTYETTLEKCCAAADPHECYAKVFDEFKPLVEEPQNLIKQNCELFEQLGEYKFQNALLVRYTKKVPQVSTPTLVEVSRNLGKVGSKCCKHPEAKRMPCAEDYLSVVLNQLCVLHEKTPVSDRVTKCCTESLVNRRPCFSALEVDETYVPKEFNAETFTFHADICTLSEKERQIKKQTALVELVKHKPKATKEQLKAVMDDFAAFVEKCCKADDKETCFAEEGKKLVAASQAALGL

Molecule SEMAGLUTIDE gave a t1/2 in the data set on Homo sapiens of 1 weeks. For the molecule `NC(=O)[C@H](CCCCNC(=O)CSC[C@H](N)C(=O)O)NC(=O)COCCOCCNC(=O)CC[C@H](NC(=O)CC[C@H](NC(=O)COCCOCCNC(=O)CCCS(=O)(=O)NC(=O)CCCCCCCCCCCCCCc1nn[nH]n1)C(=O)O)C(=O)O`, the Activity at Albumin is reported as over 99%.
